Key:
Set-up in all cases: species or system guinea pig
Details in all cases: stated in words only
[1] = target: T1, NK3 receptor (Cavia porcellus, UniProt P30098); assay: NK3 Receptor Binding Test ([3H]-senktide, crude cerebral membrane specimens)
T1 construct: Crude membrane specimens were prepared from the brain of male Hartley guinea pigs; from tissue; host or cells: guinea pig brain (crude membranes)
T1 sequence (P30098 1-440): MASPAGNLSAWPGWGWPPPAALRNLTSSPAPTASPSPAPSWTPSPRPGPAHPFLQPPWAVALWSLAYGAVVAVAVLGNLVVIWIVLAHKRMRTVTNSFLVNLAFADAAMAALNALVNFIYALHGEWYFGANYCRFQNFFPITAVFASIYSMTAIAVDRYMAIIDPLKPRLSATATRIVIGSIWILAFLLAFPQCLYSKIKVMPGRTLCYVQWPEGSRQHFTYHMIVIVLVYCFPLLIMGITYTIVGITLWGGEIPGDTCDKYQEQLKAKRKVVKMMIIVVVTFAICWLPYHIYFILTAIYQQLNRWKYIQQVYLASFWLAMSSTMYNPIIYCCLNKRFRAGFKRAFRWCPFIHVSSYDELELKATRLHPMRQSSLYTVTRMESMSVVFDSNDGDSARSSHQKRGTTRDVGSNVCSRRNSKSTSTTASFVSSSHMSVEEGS
Procedure: NK3 Receptor Binding Test
(a) Preparation of Crude Cerebral Membrane Specimens
Crude membrane specimens were prepared from the brain of male Hartley guinea pigs. Namely, the animals were sacrificed by exsanguination from the abdominal aorta under chloroform anesthesia After perfusing with Buffer (1) (50 mM Tris-HCl, pH 7.4) from the right ventricle, the brain was enucleated immediately. The excised brain was homogenized in buffer (2) (buffer (1) containing 120 mM sodium chloride and 5 mM potassium chloride) using a Polytron. Tissue mass was removed from the homogenate by passing through a Nylon mesh (50 μm) and separating by centrifugation (30,000×g, 30 minutes, 4° C.). […]
The filter containing the membrane component was transferred to a mini plastic vial containing 4 ml of Picoflow and radioactivity was measured with a liquid scintillation counter (Aloka, LSC 3500).
In order to determine the radioactivity due to non-specific binding of [^3H]-senktide (binding to sites other than the receptor, for example, the filter), the Experiment was carried out by adding an excess amount of senktide (final concentration: 10 μM), and the radioactivity was measured.
The inhibitory ratio of senktide-receptor binding due to a test compound was calculated by the following equation. […]
A: radioactivity due to nonspecific binding
B: radioactivity in the test without the addition of a test compound […]

[2] = target: T2, NK1 receptor (Cavia porcellus, UniProt P30547); assay: NK1 Receptor Binding Test ([3H]-substance P, crude pulmonary membrane specimens)
T2 construct: Crude pulmonary membrane specimens were prepared from the lungs of male Hartley guinea pigs; from tissue; host or cells: guinea pig lung (crude membranes)
T2 sequence (P30547 whole entry): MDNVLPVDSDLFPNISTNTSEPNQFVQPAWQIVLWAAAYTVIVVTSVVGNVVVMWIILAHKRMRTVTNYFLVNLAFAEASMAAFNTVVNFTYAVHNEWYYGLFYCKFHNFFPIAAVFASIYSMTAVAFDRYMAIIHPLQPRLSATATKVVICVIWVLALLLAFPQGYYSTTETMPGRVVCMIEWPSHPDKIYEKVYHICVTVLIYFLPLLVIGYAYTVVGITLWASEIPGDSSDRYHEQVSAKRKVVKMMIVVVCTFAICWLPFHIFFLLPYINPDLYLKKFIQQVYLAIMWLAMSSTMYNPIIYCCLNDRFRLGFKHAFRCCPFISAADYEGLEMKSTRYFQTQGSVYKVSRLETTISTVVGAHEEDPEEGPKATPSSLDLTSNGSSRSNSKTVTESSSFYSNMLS
Procedure: NK1 Receptor Binding Test
(a) Preparation of Crude Pulmonary Membrane Specimens
Crude pulmonary membrane specimens were prepared from the lungs of male Hartley guinea pigs. Namely, the animals were sacrificed by exsanguination from the abdominal aorta under chloroform anesthesia followed promptly by excision of lung and respiratory tract tissue.
After perfusing the excised lungs in buffer (1) (50 mM Tris-HCl, pH 7.4), the lungs were sliced into thin sections and then homogenized in a buffer (2) (buffer (1) containing 120 mM sodium chloride and 5 mM potassium chloride) using a Polytron.
(§1) The tissue mass was removed from the homogenate by passing through a Nylon mesh (50 μm) and separating by centrifugation (30,000×g, 30 minutes, 4° C.).
(§2) The pellet was re-suspended in an ice-cooled Buffer (3) (Buffer (1) containing 10 mM EDTA and 300 mM potassium chloride) and after allowing to stand undisturbed for 60 minutes at 4° C., the resulting suspension was centrifuged and washed twice (30,000×g, 15 minutes, 4° C.).
(§3) The crude membrane specimens were stored at −80° C. until the time of use.
(§4) (b) Receptor Binding Test […]
The filter containing the membrane component was transferred to a mini plastic vial containing 4 ml of Picoflow and radioactivity was measured with a liquid scintillation counter (Beckman, LCS3500).

[3] = target: T3, NK2 receptor (Cavia porcellus, UniProt Q64077); assay: NK2 Receptor Binding Test ([3H]-SR-48968, crude ileal membrane specimens)
T3 construct: Crude membrane specimens were prepared from the ileum of male Hartley guinea pigs; from tissue; host or cells: guinea pig ileum (crude membranes)
T3 sequence (Q64077 1-402): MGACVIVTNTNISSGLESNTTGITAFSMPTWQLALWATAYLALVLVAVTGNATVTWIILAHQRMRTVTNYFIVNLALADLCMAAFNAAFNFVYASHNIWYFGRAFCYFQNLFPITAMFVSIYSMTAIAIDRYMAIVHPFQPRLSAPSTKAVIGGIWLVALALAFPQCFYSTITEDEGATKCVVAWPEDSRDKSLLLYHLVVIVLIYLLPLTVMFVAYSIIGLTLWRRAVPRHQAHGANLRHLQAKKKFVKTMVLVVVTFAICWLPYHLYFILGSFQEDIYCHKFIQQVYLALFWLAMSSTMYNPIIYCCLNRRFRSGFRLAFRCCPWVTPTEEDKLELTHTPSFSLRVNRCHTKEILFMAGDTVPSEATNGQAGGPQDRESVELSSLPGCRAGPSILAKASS
Procedure: NK2 Receptor Binding Test
(a) Preparation of Crude Ileal Membrane Specimens
Crude membrane specimens were prepared from the ileum of male Hartley guinea pigs. Namely, the animals were sacrificed by exsanguination from the abdominal aorta under chloroform anesthesia followed promptly by excision of the ileum.
The excised ileum was separated into its contents, secretions and epithelium by scraping with a slide glass. After slicing into thin sections in buffer (1) (50 mM Tris-HCl, pH 7.4), it was homogenized in buffer (2) (buffer (1) containing 120 mM sodium chloride and 5 mM potassium chloride) using a Polytron.
as §1, §2, §3, §4
The filter containing the membrane component was transferred to a mini plastic vial containing 4 ml of Picoflow and radioactivity was measured with a liquid scintillation counter (Beckman. LSC3500).

COc1cc(C(=O)N2CCO[C@](CCN3CCC4(CC3)CC(O)c3ccccc34)(c3ccc(Cl)c(Cl)c3)C2)cc(OC)c1OC (stereo partly drawn) [Example 2, 1-{2-[(2R)-(3,4-Dichlorophenyl)-4-(3,4,5-trimethoxybenzoyl)mopholin-2-yl]ethyl}spiro[(3-hydroxy)indane-1,4′-piperidine]]
superior to those of Compound A: antagonistic activity against NK3 receptor [1] | antagonistic activity against NK1 receptor [2] | antagonistic activity against NK2 receptor [3]

COc1cc(C(=O)N2CCO[C@](CCN3CCC4(CC3)c3ccccc3CC4O)(c3ccc(Cl)c(Cl)c3)C2)cc(OC)c1OC (stereo partly drawn) [Example 1, 1-{2-[(2R)-(3,4-Dichlorophenyl)-4-(3,4,5-trimethoxybenzoyl)morpholin-2-yl]ethyl}spiro[(2-hydroxy)indane-1,4′-piperidine]]
superior to those of Compound A: antagonistic activity against NK3 receptor [1] | antagonistic activity against NK1 receptor [2] | antagonistic activity against NK2 receptor [3]

Reference: US6511975B1, “Spiropiperidine derivatives” (Sankyo Company, Limited, priority 1998, dated 2003)
